Test results: patent publication US9695155B2, “Herbicidal substituted pyrimidinyloxy benzene compounds” (E. I. DU PONT DE NEMOURS AND COMPANY, priority 2013, dated 2017)

Key:
[1] = test system: large (Lg) crabgrass; test: Test A preemergence; assay type: in vivo, Digitaria sanguinalis
Outline: (§1)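 Visual 0–100 rating (100 = complete control) taken about 10 d post-treatment relative to untreated checks. Preemergence: directed soil spray on sown loam/sand pots. Postemergence: seedlings 2–10 cm, 1–2 leaf. Non-phytotoxic solvent formulation with surfactant.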

[2] = test system: pigweed; test: Test A preemergence; assay type: in vivo, Amaranthus retroflexus
Outline: as §1

[3] = test system: large (Lg) crabgrass; test: Test A postemergence; assay type: in vivo, Digitaria sanguinalis
Outline: as §1

[4] = test system: giant foxtail; test: Test A postemergence; assay type: in vivo, Setaria faberii
Outline: as §1

[5] = test system: pigweed; test: Test A postemergence; assay type: in vivo, Amaranthus retroflexus
Outline: as §1

[6] = test system: blackgrass; test: Test C preemergence; assay type: in vivo, Alopecurus myosuroides
Outline: (§2)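 Plants were kept under greenhouse conditions for 13–15 days following spray. Pre-emergent application went to soil (loam–sand), post-emergent to foliage at 1–4 leaves. Evaluation: visual, percent control against untreated checks.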

[7] = test system: giant foxtail; test: Test C preemergence; assay type: in vivo, Setaria faberii
Outline: as §2

[8] = test system: johnsongrass; test: Test C preemergence; assay type: in vivo, Sorghum halepense
Outline: as §2

[9] = test system: ragweed; test: Test C preemergence; assay type: in vivo, Ambrosia elatior
Outline: as §2

[10] = 125 g ai/ha, 0 to 100 scale where 0 is no effect and 100 is complete control
[11] = 500 g ai/ha, 0 to 100 scale, 0 no effect, 100 complete control, approx. 10 days
[12] = 500 g ai/ha, 0 to 100 scale where 0 is no effect and 100 is complete control
[13] = 16 g ai/ha, preemergence, scale 0 to 100 (0 no effect, 100 complete control)
[14] = 62 g ai/ha, preemergence, scale 0 (no effect) to 100 (complete control)
[15] = 125 g ai/ha, preemergence, scale 0 (no effect) to 100 (complete control)
[16] = Preemergence, 31 g ai/ha, scale 0 to 100, 0 no effect, 100 complete control

FC(F)(F)c1cnn(-c2ccccc2Oc2ncc(Br)cn2)c1 [Compound 18, 5-bromo-2-[2-[4-(trifluoromethyl)-1H-pyrazol-1-yl]phenoxy]pyrimidine]
pest or weed control at 125 g/ha ([1]; Digitaria sanguinalis, pre-emergence, 240 h, 125 g ai/ha, 0 to 100 scale where 0 is no effect and 100 is complete control, read-out: Plant response rating, Crabgrass, Large): 100%
pest or weed control at 500 g/ha ([1]; Digitaria sanguinalis, pre-emergence, 240 h, 500 g ai/ha, 0 to 100 scale, 0 no effect, 100 complete control, approx. 10 days, read-out: Crabgrass, Large plant response rating): 100%
pest or weed control at 125 g/ha ([2]; Amaranthus retroflexus, pre-emergence, 125 g ai/ha, 0 to 100 scale where 0 is no effect and 100 is complete control, read-out: Plant response rating, Pigweed): 100%
pest or weed control at 500 g/ha ([2]; Amaranthus retroflexus, pre-emergence, 240 h, 500 g ai/ha, 0 to 100 scale, 0 no effect, 100 complete control, approx. 10 days, read-out: Pigweed plant response rating): 100%
pest or weed control at 125 g/ha ([3]; Digitaria sanguinalis, post-emergence, 240 h, 125 g ai/ha, 0 to 100 scale where 0 is no effect and 100 is complete control, read-out: Plant response rating, Crabgrass, Large): 70%
pest or weed control at 500 g/ha ([3]; Digitaria sanguinalis, post-emergence, 240 h, 500 g ai/ha, 0 to 100 scale, 0 no effect, 100 complete control, read-out: Plant response rating Crabgrass, Large): 100%
pest or weed control at 125 g/ha ([4]; Setaria faberi, post-emergence, 240 h, 125 g ai/ha, 0 to 100 scale where 0 is no effect and 100 is complete control, read-out: Plant response rating, Foxtail, Giant): 80%
pest or weed control at 500 g/ha ([4]; Setaria faberi, post-emergence, 240 h, 500 g ai/ha, 0 to 100 scale, 0 no effect, 100 complete control, read-out: Plant response rating Foxtail, Giant): 100%
pest or weed control at 125 g/ha ([5]; Amaranthus retroflexus, post-emergence, 125 g ai/ha, 0 to 100 scale where 0 is no effect and 100 is complete control, read-out: Plant response rating, Pigweed): 100%
pest or weed control at 500 g/ha ([5]; Amaranthus retroflexus, post-emergence, 240 h, 500 g ai/ha, 0 to 100 scale, 0 no effect, 100 complete control, read-out: Plant response rating Pigweed): 100%
pest or weed control at 62 g/ha ([6]; Alopecurus myosuroides, pre-emergence, 62 g ai/ha, preemergence, scale 0 (no effect) to 100 (complete control), read-out: Blackgrass plant response rating): 80%
pest or weed control at 125 g/ha ([6]; Alopecurus myosuroides, pre-emergence, 125 g ai/ha, preemergence, scale 0 (no effect) to 100 (complete control), read-out: Blackgrass plant response rating): 90%
pest or weed control at 250 g/ha ([6]; Alopecurus myosuroides, pre-emergence, 250 g ai/ha, preemergence, scale 0 (no effect) to 100 (complete control), read-out: Blackgrass plant response rating): 90%
pest or weed control at 31 g/ha ([6]; Alopecurus myosuroides, pre-emergence, Preemergence, 31 g ai/ha, scale 0 to 100, 0 no effect, 100 complete control, read-out: Plant response rating, Blackgrass): 10%
pest or weed control at 62 g/ha ([7]; Setaria faberi, pre-emergence, 62 g ai/ha, preemergence, scale 0 (no effect) to 100 (complete control), read-out: Foxtail, Giant plant response rating): 100%
pest or weed control at 125 g/ha ([7]; Setaria faberi, pre-emergence, 125 g ai/ha, preemergence, scale 0 (no effect) to 100 (complete control), read-out: Foxtail, Giant plant response rating): 100%
pest or weed control at 250 g/ha ([7]; Setaria faberi, pre-emergence, 250 g ai/ha, preemergence, scale 0 (no effect) to 100 (complete control), read-out: Foxtail, Giant plant response rating): 100%
pest or weed control at 31 g/ha ([7]; Setaria faberi, pre-emergence, Preemergence, 31 g ai/ha, scale 0 to 100, 0 no effect, 100 complete control, read-out: Plant response rating, Foxtail, Giant): 65%
pest or weed control at 62 g/ha ([8]; Sorghum halepense, pre-emergence, 62 g ai/ha, preemergence, scale 0 (no effect) to 100 (complete control), read-out: Johnsongrass plant response rating): 30%
pest or weed control at 125 g/ha ([8]; Sorghum halepense, pre-emergence, 125 g ai/ha, preemergence, scale 0 (no effect) to 100 (complete control), read-out: Johnsongrass plant response rating): 80%
pest or weed control at 250 g/ha ([8]; Sorghum halepense, pre-emergence, 250 g ai/ha, preemergence, scale 0 (no effect) to 100 (complete control), read-out: Johnsongrass plant response rating): 98%
pest or weed control at 31 g/ha ([8]; Sorghum halepense, pre-emergence, Preemergence, 31 g ai/ha, scale 0 to 100, 0 no effect, 100 complete control, read-out: Plant response rating, Johnsongrass): 30%
pest or weed control at 62 g/ha ([9]; Ambrosia artemisiifolia, pre-emergence, 62 g ai/ha, preemergence, scale 0 (no effect) to 100 (complete control), read-out: Ragweed plant response rating): 0%
pest or weed control at 125 g/ha ([9]; Ambrosia artemisiifolia, pre-emergence, 125 g ai/ha, preemergence, scale 0 (no effect) to 100 (complete control), read-out: Ragweed plant response rating): 10%
pest or weed control at 250 g/ha ([9]; Ambrosia artemisiifolia, pre-emergence, 250 g ai/ha, preemergence, scale 0 (no effect) to 100 (complete control), read-out: Ragweed plant response rating): 30%
pest or weed control at 31 g/ha ([9]; Ambrosia artemisiifolia, pre-emergence, Preemergence, 31 g ai/ha, scale 0 to 100, 0 no effect, 100 complete control, read-out: Plant response rating, Ragweed): 0%

Fc1cnc(Oc2cccc(C(F)F)c2-n2cc(Br)cn2)nc1 [Compound 112]
Plant response rating, Crabgrass, Large [1, 10]: 100
Crabgrass, Large plant response rating [1, 11]: 100
Plant response rating, Pigweed [2, 10]: 100
Pigweed plant response rating [2, 11]: 100
Plant response rating, Crabgrass, Large [3, 10]: 60
Plant response rating, Crabgrass, Large [3, 12]: 100
Plant response rating, Foxtail, Giant [4, 10]: 30
Plant response rating, Foxtail, Giant [4, 12]: 90
Plant response rating, Pigweed [5, 12]: 100
Blackgrass plant response rating [6, 13]: 0
Blackgrass plant response rating [6, 14]: 40
Blackgrass plant response rating [6, 15]: 95
Plant response rating, Blackgrass [6, 16]: 30
Foxtail, Giant plant response rating [7, 13]: 15
Foxtail, Giant plant response rating [7, 14]: 100
Foxtail, Giant plant response rating [7, 15]: 100
Plant response rating, Foxtail, Giant [7, 16]: 85
Johnsongrass plant response rating [8, 13]: 0
Johnsongrass plant response rating [8, 14]: 20
Johnsongrass plant response rating [8, 15]: 40
Plant response rating, Johnsongrass [8, 16]: 5
Ragweed plant response rating [9, 13]: 0
Ragweed plant response rating [9, 14]: 35
Ragweed plant response rating [9, 15]: 100
Plant response rating, Ragweed [9, 16]: 0
